Legend:
[1] = test system: pancreatic cancer cell AsPC-1; assay: Suppressing proliferation of pancreatic cancer cell AsPC-1 in vitro (MTT, number of living cells); type: cell-based; details: Homo sapiens, ASPC1, 72 h, AsPC-1, RPMI 1640 medium, incubated 3 days with test compound
Description: (§1) A cell suspension of pancreatic cancer cell AsPC-1 (20000/ml) in RPMI 1640 medium (Flow Laboratories) supplemented with 10% of inactivated fetal calf serum, 1 mM of sodium pyruvate and 25 mM of HEPES [2-{4-(2-hydroxyethyl)-1-piperazinyl}ethanesulfonic acid] was added to 96-well micro-culture plates (50ul/well). The culture plates were incubated at 37°C in a 5% CO₂ incubator. On the following day, the solution of each test compound dissolved in dimethylformamide and diluted (3-fold steps) was added (50 ul/well), which was incubated for further 3 days. The culture broth containing the test compounds was eliminated, and the cells were washed, to which was added a solution of MTT pigment, and the number of living cells was calculated [Tada et al. J. Immunol. Methods, 93 p.157 (1986)]. The number of cells in the control group containing no test compound was assumed to be 100%, and the respective ratios of cell numbers in groups containing the respective test compounds were calculated to thereby determine the concentrations (IC₅₀ value) of the respective test compounds necessary to suppress the number of living cells to 50% of that of the control group.

[2] = test system: pancreatic cancer cell strain PC-3; assay: Suppressing proliferation of PC-3 cells in vitro (MTT, number of living cells); type: cell-based; details: 96 h, PC-3, F-12K medium, incubated 4 days with test compound
Description: as §1
For the test of pancreatic cancer cell strain PC-3, the same method in the case of AcPC-1 was employed excepting the use of F-12K medium containing 10% inactivated fetal calf serum (Flow Laboratories) and change of the incubation period after adding the test compounds to 4 days, to thereby determine the IC₅₀ value (nm).

Row | Structure (SMILES) | IC50 [1] | IC50 [2]
1 | CC(C)(C)n1ncc(SCc2ccc(-c3ccccc3)cc2)c(Cl)c1=O [Compound 3, 2-t-butyl-4-chloro-5-(4-phenyl)benzylthio-3(2H)pyridazinone] | < 1.52 nM | 2 nM
2 | CC(C)(C)n1ncc(SCc2ccc3ccccc3c2)c(Cl)c1=O [Compound 4, 2-t-butyl-4-chloro-5-(2-naphthyl)methylthio-3(2H)pyridazinone] | 15 nM | < 1.52 nM
3 | CC(C)(C)n1ncc(SCC=Cc2ccccc2)c(Cl)c1=O [Compound 6, 2-t-butyl-4-chloro-5-{(3-phenyl)-2-propenylthio}-3(2H)pyridazinone] | 290 nM | 53 nM
4 | CC(C)(C)n1ncc(SCc2ccc3ccccc3n2)c(Cl)c1=O [Compound 12, 2-t-butyl-4-chloro-5-(2-quinolyl)methylthio-3(2H)pyridazinone] | 74 nM | 42 nM
5 | CC(C)(C)n1ncc(SCc2ccc(-c3ccccc3C#N)cc2)c(Cl)c1=O [Compound 13, 2-t-butyl-4-chloro-5-{4-(2-cyanophenyl)} benzylthio-3(2H)pyridazinone] | < 1.52 nM | < 1.52 nM
6 | CC(C)(C)n1ncc(SCc2ccc(C(F)(F)F)cc2)c(Cl)c1=O [Compound 17, 2-t-butyl-4-chloro-5-(4-trifluoromethyl) benzylthio-3(2H)pyridazinone] | 59 nM | 56 nM
7 | CC(C)(C)n1ncc(OCc2ccc(-c3ccccc3)cc2)c(Cl)c1=O [Compound 18, 2-t-butyl-4-chloro-5-(4-phenyl)benzyloxy-3(2H)pyridazinone] | < 1.52 nM | < 1.52 nM
8 | CC(C)(C)n1ncc(OCc2ccc3ccccc3c2)c(Cl)c1=O [Compound 20, 2-t-butyl-4-chloro-5-(2-naphthyl)methyloxy-3(2H)pyridazinone] | 440 nM | 5 nM
9 | Cc1c(SCc2ccc(C(C)(C)C)cc2)cnn(C(C)(C)C)c1=O [Compound 27, 2-t-butyl-5-(4-t-butyl)benzylthio-4-methyl-3(2H)pyridazinone] | 9 nM | < 1.52 nM
10 | Cc1c(OCc2ccc(C(C)(C)C)cc2)cnn(C(C)(C)C)c1=O [Compound 31, 2-t-butyl-5-(4-t-butyl)benzyloxy-4-methyl-3(2H)pyridazinone] | 84 nM | 25 nM
11 | CC(C)(C)n1ncc(SCc2ccc(-c3ccccn3)cc2)c(Cl)c1=O [Compound 39, 2-t-butyl-4-chloro-5-{4-(2-pyridyl)benzylthio}-3(2H)-pyridazinone] | < 1.52 nM | 4 nM
12 | CC(C)(C)n1ncc(OCc2ccc(-c3ccccn3)cc2)c(Cl)c1=O [Compound 42, 2-t-butyl-4-chloro-5-{4-(2-pyridyl)benzyloxy}-3(2H)-pyridazinone] | 5 nM | 2 nM
13 | CC(C)(C)n1ncc(SC(CO)c2ccccc2)c(Cl)c1=O (stereo not shown) [Compound 48, 2-t-butyl-4-chloro-5-(2-hydroxy-1-phenyl) ethylthio-3(2H)-pyridazinone] | 67 nM | 45 nM
14 | CC(C)(C)n1ncc(OCc2ccc(OCc3ccc(F)cc3)nc2)c(Cl)c1=O [Compound 49, 2-t-butyl-4-chloro-5-[6-(4-fluorobenzyloxy)-3-pyridyl]methoxy-3(2H)-pyridazinone] | 120 nM | < 1.52 nM
15 | CC(C)(C)n1ncc(SCc2ccc(OCc3ccc(F)cc3)nc2)c(Cl)c1=O [Compound 50, 2-t-butyl-4-chloro-5-[6-(4-fluorobenzyloxy)-3-pyridyl]methylthio-3(2H)-pyridazinone] | 11 nM | < 1.52 nM
16 | CC(C)(C)n1ncc(SCc2ccc(C(=O)c3ccc(Cl)cc3)cc2)c(Cl)c1=O [Compound 72, 2-t-butyl-4-chloro-5-[4-(4-chlorobenzoyl)benzylthio]-3(2H)-pyridazinone] | < 1.52 nM | < 1.52 nM
17 | CC(C)(C)n1ncc(OCc2ccc(C(=O)c3ccc(Cl)cc3)cc2)c(Cl)c1=O [Compound 73, 2-t-butyl-4-chloro-5-[4-(4-chlorobenzoyl)benzyloxy]-3(2H)-pyridazinone] | 8 nM | < 1.52 nM

Reference: EP0665223A1, “Antitumor agent, novel 3(2H)-pyridazinone derivatives and their preparation” (TAKEDA CHEMICAL INDUSTRIES, LTD., priority 1994, dated 1995)
